In patent publication US20260373156A1, “CANCER TREATMENTS USING MTA-COOPERATIVE PRMT5 INHIBITORS” (AMGEN INC., priority 2022, published 2026):

Legend:
Settings in all cases: for Combination Fa: 8640 min
A549 cells [1] = assay: CellTiter-Glo viability and CalcuSyn synergy, PRMT5 inhibitor + trametinib, 6 days
PSN1 cells = assay: CellTiter-Glo viability and CalcuSyn synergy, PRMT5 inhibitor + KIF18A, 6 days
A549 cells [2] = assay: CellTiter-Glo viability and CalcuSyn synergy, PRMT5 inhibitor + palbociclib, 6 days
[3] = Compound B 0.0425 μM + trametinib 0.000213 μM
[4] = Compound B 0.0425 μM + trametinib 0.000404 μM
[5] = Compound B 0.0425 μM + trametinib 0.000767 μM
[6] = Compound B 0.0425 μM + trametinib 0.001458 μM
[7] = Compound B 0.0425 μM + trametinib 0.00277 μM
[8] = Compound B 0.0425 μM + trametinib 0.005263 μM
[9] = Compound B 0.0425 μM + trametinib 0.01 μM
[10] = Compound B 0.0384 μM + KIF18A 0.003951 μM
[11] = Compound B 0.0384 μM + KIF18A 0.005926 μM
[12] = Compound B 0.0384 μM + KIF18A 0.008889 μM
[13] = Compound B 0.0384 μM + KIF18A 0.013333 μM
[14] = Compound B 0.0384 μM + KIF18A 0.02 μM
[15] = Compound B 0.0384 μM + KIF18A 0.03 μM
[16] = Compound B 0.0384 μM + KIF18A 0.045 μM
[17] = Compound B 0.1535 μM + palbociclib 0.298023 μM
[18] = Compound B 0.1535 μM + palbociclib 0.476837 μM
[19] = Compound B 0.1535 μM + palbociclib 0.762939 μM
[20] = Compound B 0.1535 μM + palbociclib 1.2207 μM
[21] = Compound B 0.1535 μM + palbociclib 1.95313 μM
[22] = Compound B 0.1535 μM + palbociclib 3.125 μM
[23] = Compound B 0.1535 μM + palbociclib 5 μM

Cc1cc2cc(C(=O)N(Cc3ccc(C(F)(F)F)cn3)[C@@H](C)c3ncccn3)ccc2nc1N [Compound B]
Computed CI value (A549 cells [1]; [3]): 0.569 | Combination Fa (A549 cells [1]; [3]): 0.4457 | Computed CI value (A549 cells [1]; [4]): 0.514 | Combination Fa (A549 cells [1]; [4]): 0.5278 | Computed CI value (A549 cells [1]; [5]): 0.5 | Combination Fa (A549 cells [1]; [5]): 0.6046 | Computed CI value (A549 cells [1]; [6]): 0.506 | Combination Fa (A549 cells [1]; [6]): 0.6769 | Computed CI value (A549 cells [1]; [7]): 0.452 | Combination Fa (A549 cells [1]; [7]): 0.7607 | Computed CI value (A549 cells [1]; [8]): 0.357 | Combination Fa (A549 cells [1]; [8]): 0.8409 | Computed CI value (A549 cells [1]; [9]): 0.589 | Combination Fa (A549 cells [1]; [9]): 0.8482 | Computed CI value (PSN1 cells; [10]): 0.627 | Combination Fa (PSN1 cells; [10]): 0.778 | Computed CI value (PSN1 cells; [11]): 0.75 | Combination Fa (PSN1 cells; [11]): 0.751 | Computed CI value (PSN1 cells; [12]): 0.594 | Combination Fa (PSN1 cells; [12]): 0.819 | Computed CI value (PSN1 cells; [13]): 0.645 | Combination Fa (PSN1 cells; [13]): 0.825 | Computed CI value (PSN1 cells; [14]): 0.674 | Combination Fa (PSN1 cells; [14]): 0.844 | Computed CI value (PSN1 cells; [15]): 0.778 | Combination Fa (PSN1 cells; [15]): 0.852 | Computed CI value (PSN1 cells; [16]): 0.813 | Combination Fa (PSN1 cells; [16]): 0.88 | Computed CI value (A549 cells [2]; [17]): 0.293 | Combination Fa (A549 cells [2]; [17]): 0.6994 | Computed CI value (A549 cells [2]; [18]): 0.341 | Combination Fa (A549 cells [2]; [18]): 0.7105 | Computed CI value (A549 cells [2]; [19]): 0.497 | Combination Fa (A549 cells [2]; [19]): 0.7007 | Computed CI value (A549 cells [2]; [20]): 0.421 | Combination Fa (A549 cells [2]; [20]): 0.7619 | Computed CI value (A549 cells [2]; [21]): 0.626 | Combination Fa (A549 cells [2]; [21]): 0.761 | Computed CI value (A549 cells [2]; [22]): 0.685 | Combination Fa (A549 cells [2]; [22]): 0.7958 | Computed CI value (A549 cells [2]; [23]): 0.377 | Combination Fa (A549 cells [2]; [23]): 0.8818
